{
  "source": "paper PMC11117723",
  "about": "“Benzene with Alkyl Chains Is a Universal Scaffold for Multivalent Virucidal Antivirals” (ACS Central Science, 2024)",
  "key": {"HSV-2": {"system": "HSV-2", "assay": "HSV-2 inhibition (dose response) plaque assay on Vero cells", "format": "cell-based", "conditions": "for EC50: Vero cells, virus pre-incubated with compound 1 h, read-out: HSV-2 EC50 (95% CI)"}, "[1]": {"assay": "Vero cell cytotoxicity (MTS assay)", "format": "cell-based", "conditions": "African green monkey, Vero cells, read-out: CC50 (95% CI), Vero cells"}, "SARS-CoV-2 (Alpha)": {"system": "SARS-CoV-2 (Alpha)", "assay": "SARS-CoV-2 (alpha strain) inhibition plaque assay on Vero E6 cells", "format": "cell-based", "conditions": "Severe acute respiratory syndrome coronavirus 2, Vero C1008, read-out: SARS-CoV-2 (Alpha) EC50 (95% CI)"}, "HIV-1 (YU-2)": {"system": "HIV-1 (YU-2)", "assay": "HIV-1 (YU-2) inhibition assay on TZM-bl cells (luciferase)", "format": "cell-based", "conditions": "Human immunodeficiency virus 1, read-out: HIV-1 EC50 (95% CI)"}, "GFP-EBV B95-8 (EBV)": {"system": "GFP-EBV B95-8 (EBV)", "assay": "microbe, parasite or virus in culture", "format": "cell-based, Epstein–Barr virus (EBV)", "conditions": "human gammaherpesvirus 4, read-out: EBV EC50 (95% CI)"}, "GFP-KSHV (KSHV)": {"system": "GFP-KSHV (KSHV)", "assay": "microbe, parasite or virus in culture", "format": "cell-based, Kaposi’s sarcoma-associated herpesvirus (KSHV)", "conditions": "Human gammaherpesvirus 8, HEK-293T, read-out: KSHV EC50 (95% CI)"}, "in vitro": {"assay": "in vitro", "conditions": "African green monkey"}, "[2]": {"assay": "TZM-bl cell cytotoxicity (WST-1)", "conditions": "human"}, "[3]": {"assay": "Raji cell cytotoxicity (Zombie NIR flow cytometry)", "conditions": "human"}, "[4]": {"assay": "HEK293T cell cytotoxicity (Zombie NIR flow cytometry)", "conditions": "human"}, "SARS-CoV-2 (Omicron)": {"system": "SARS-CoV-2 (Omicron)", "assay": "SARS-CoV-2 Omicron dose-response assay on Vero E6 cells", "format": "cell-based", "conditions": "Severe acute respiratory syndrome coronavirus 2, Vero C1008, read-out: SARS-CoV-2 (Omicron) EC50 (95% CI)"}},
  "note": "Where two headings read alike, the source gives them in different places.",
  "data": [
    {"smiles": "O=S(=O)(O)OCCCCCCCCCSCC(CSCCCCCCCCCOS(=O)(=O)O)(CSCCCCCCCCCOS(=O)(=O)O)CSCCCCCCCCCOS(=O)(=O)O", "note": "[P4C9S]", "values": [
      {"measurement": "EC50", "setting": "HSV-2; Human alphaherpesvirus 2, Vero", "value": 6.5, "unit": "µM"},
      {"measurement": "EC50", "setting": "HSV-2", "value": 6.48, "unit": "µM"},
      {"measurement": "CC50 at 24 h", "setting": "[1]", "value": 185, "unit": "µM"},
      {"measurement": "EC50", "setting": "SARS-CoV-2 (Alpha)", "value": 0.48, "unit": "µM"},
      {"measurement": "EC50", "setting": "HIV-1 (YU-2)", "value": 1.94, "unit": "µM"},
      {"measurement": "EC50", "setting": "GFP-EBV B95-8 (EBV)", "value": 33.9, "unit": "µM"},
      {"measurement": "EC50", "setting": "GFP-KSHV (KSHV)", "value": 20.8, "unit": "µM"},
      {"measurement": "CC50", "setting": "in vitro", "value": 4, "unit": "µM"},
      {"measurement": "CC50 at 6 h", "setting": "[2]", "value": 18.4, "unit": "µM"},
      {"measurement": "CC50 at 2 days", "setting": "[3]", "value": "> 276", "unit": "µM"},
      {"measurement": "CC50 at 2 days", "setting": "[4]", "value": 122, "unit": "µM"}
    ]},
    {"smiles": "CCc1c(CSCCCCCCCCCOS(=O)(=O)O)c(CC)c(CSCCCCCCCCCOS(=O)(=O)O)c(CC)c1CSCCCCCCCCCOS(=O)(=O)O", "note": "[BET3C9S]", "values": [
      {"measurement": "EC50", "setting": "HSV-2; Human alphaherpesvirus 2, Vero", "value": 13.1, "unit": "µM"},
      {"measurement": "CC50 at 24 h", "setting": "[1]", "value": 81.6, "unit": "µM"},
      {"measurement": "EC50", "setting": "SARS-CoV-2 (Alpha)", "value": 1.1, "unit": "µM"},
      {"measurement": "EC50", "setting": "SARS-CoV-2 (Omicron)", "value": "> 104", "unit": "µM"},
      {"measurement": "EC50", "setting": "HIV-1 (YU-2)", "value": 6.12, "unit": "µM"},
      {"measurement": "CC50", "setting": "in vitro", "value": 17, "unit": "µM"},
      {"measurement": "CC50 at 6 h", "setting": "[2]", "value": 29.7, "unit": "µM"}
    ]},
    {"smiles": "O=c1n(CCSCCCCCCCCCOS(=O)(=O)O)c(=O)n(CCSCCCCCCCCCOS(=O)(=O)O)c(=O)n1CCSCCCCCCCCCOS(=O)(=O)O", "note": "[A3C9S]", "values": [
      {"measurement": "EC50", "setting": "HSV-2; Human alphaherpesvirus 2, Vero", "value": 20.1, "unit": "µM"},
      {"measurement": "CC50 at 24 h", "setting": "[1]", "value": 221, "unit": "µM"},
      {"measurement": "EC50", "setting": "SARS-CoV-2 (Alpha)", "value": 23.1, "unit": "µM"},
      {"measurement": "CC50", "setting": "in vitro", "value": 39.5, "unit": "µM"}
    ]},
    {"smiles": "O=S(=O)(O)OCCCCCCCCCSCC(COS(=O)(=O)O)(COS(=O)(=O)O)CSCCCCCCCCCOS(=O)(=O)O", "note": "[P2C9S]", "values": [
      {"measurement": "EC50", "setting": "HSV-2; Human alphaherpesvirus 2, Vero", "value": 326, "unit": "µM"},
      {"measurement": "EC50", "setting": "SARS-CoV-2 (Alpha)", "value": "> 1300", "unit": "µM"},
      {"measurement": "CC50", "setting": "in vitro", "value": "> 1300", "unit": "µM"}
    ]},
    {"smiles": "O=S(=O)(O)OCCOCCOCCOCCSCc1cc(CSCCOCCOCCOCCOS(=O)(=O)O)cc(CSCCOCCOCCOCCOS(=O)(=O)O)c1", "note": "[B3PEG4S]", "values": [
      {"measurement": "HSV-2 inhibition at 400 μM", "setting": "HSV-2; 400 μM", "value": "No inhibition"},
      {"measurement": "EC50", "setting": "HSV-2; Human alphaherpesvirus 2, Vero", "value": "> 400", "unit": "µM"},
      {"measurement": "EC50", "setting": "SARS-CoV-2 (Alpha)", "value": "> 400", "unit": "µM"}
    ]},
    {"smiles": "O=S(=O)(O)OCCCCCCCCCSCC(COS(=O)(=O)O)(CSCCCCCCCCCOS(=O)(=O)O)CSCCCCCCCCCOS(=O)(=O)O", "note": "[P3C9S]", "values": [
      {"measurement": "EC50", "setting": "HSV-2; Human alphaherpesvirus 2, Vero", "value": 24.4, "unit": "µM"},
      {"measurement": "CC50 at 24 h", "setting": "[1]", "value": 522, "unit": "µM"},
      {"measurement": "EC50", "setting": "SARS-CoV-2 (Alpha)", "value": 10.3, "unit": "µM"},
      {"measurement": "EC50", "setting": "SARS-CoV-2 (Omicron)", "value": "> 1080", "unit": "µM"},
      {"measurement": "CC50", "setting": "in vitro", "value": 413, "unit": "µM"}
    ]},
    {"smiles": "O=S(=O)(O)OCCCCCCSCc1cc(CSCCCCCCOS(=O)(=O)O)cc(CSCCCCCCOS(=O)(=O)O)c1", "note": "[B3C6S]", "values": [
      {"measurement": "EC50", "setting": "HSV-2; Human alphaherpesvirus 2, Vero", "value": 78.4, "unit": "µM"},
      {"measurement": "CC50 at 24 h", "setting": "[1]", "value": "> 530", "unit": "µM"},
      {"measurement": "EC50", "setting": "SARS-CoV-2 (Alpha)", "value": 195, "unit": "µM"},
      {"measurement": "EC50", "setting": "HIV-1 (YU-2)", "value": 5.47, "unit": "µM"},
      {"measurement": "CC50", "setting": "in vitro", "value": "> 530", "unit": "µM"},
      {"measurement": "CC50 at 6 h", "setting": "[2]; TZM-bl cells", "value": "> 133", "unit": "µM"}
    ]}
  ]
}
